For the series, the system named is Phospholipidosis. Description: Literature-mined public compounds from Kruhlak et al phospholipidosis modelling dataset.

Take `COc1cccc2c1C(=O)c1c(O)c3c(c(O)c1C2=O)C[C@@](O)(C(=O)CO)C[C@@H]3O[C@H]1C[C@H](N)[C@H](O)[C@H](C)O1` [DOXORUBICIN]: the Phospholipidosis result is given as “Negative: confirmed by electron microscopy”.

With `CN(C)CCOC(C)(c1ccccc1)c1ccccn1` (stereo unspecified) [DOXYLAMINE], the Phospholipidosis entry is “Negative: based on the absence of positive reported data from WMDD”.

With `CCC(=O)O[C@H]1CC[C@H]2[C@@H]3CC[C@H]4CC(=O)[C@H](C)C[C@]4(C)[C@H]3CC[C@]12C` [DROMOSTANOLONE PROPIONATE], the Phospholipidosis result is “Negative: based on the absence of positive reported data from WMDD”.

`Cn1c(=O)c2c(ncn2CC(O)CO)n(C)c1=O` (stereo unspecified) [DYPHYLLINE]: the Phospholipidosis entry is listed as “Negative: based on the absence of positive reported data from WMDD”.

Turning to `CC[C@H]1CN2CCc3cc(OC)c(OC)cc3[C@@H]2C[C@@H]1C[C@H]1NCCc2cc(OC)c(OC)cc21` [EMETINE], the Phospholipidosis result is “Positive: weak inducer based on presence of foamy macrophages and cytoplasmic vacuolations”.

In the case of `CN[C@@H](C)[C@H](O)c1ccccc1` [EPHEDRINE], the Phospholipidosis entry is on record as “Negative: based on the absence of positive reported data from WMDD”.

Regarding `CNC[C@H](O)c1ccc(O)c(O)c1` [EPINEPHRINE], the Phospholipidosis entry was “Negative: based on the absence of positive reported data from WMDD”.

In the case of `COc1cccc2c1C(=O)c1c(O)c3c(c(O)c1C2=O)C[C@@](O)(C(=O)CO)C[C@@H]3O[C@H]1C[C@H](N)[C@@H](O)[C@H](C)O1` [EPIRUBICIN], the Phospholipidosis entry was “Negative: based on the absence of positive reported data from WMDD”.

As to `CCCCC[C@H](O)/C=C/[C@@H]1[C@H]2C/C(=C/CCCC(=O)O)O[C@H]2C[C@H]1O` [EPOPROSTENOL], the Phospholipidosis result is “Negative: based on the absence of positive reported data from WMDD”.

In the case of `CCCCc1ncc(/C=C(\Cc2cccs2)C(=O)O)n1Cc1ccc(C(=O)O)cc1` [EPROSARTAN], the Phospholipidosis result is given as “Negative: based on the absence of positive reported data from WMDD”.

For `COC(=O)CCc1ccc(OCC(O)CNC(C)C)cc1` (stereo unspecified) [ESMOLOL], the Phospholipidosis result is listed as “Negative: based on the absence of positive reported data from WMDD”.

With `CCC(=O)Oc1ccc2c(c1)CC[C@@H]1[C@@H]2CC[C@]2(C)[C@@H](OC(=O)CC)CC[C@@H]12` [ESTRADIOL DIPROPIONATE], the Phospholipidosis entry is “Negative: based on the absence of positive reported data from WMDD”.

On to `CCCCCCCCCCC(=O)O[C@H]1CC[C@H]2[C@@H]3CCc4cc(O)ccc4[C@H]3CC[C@]12C` [ESTRADIOL UNDECYLATE], for which the Phospholipidosis result is “Negative: based on the absence of positive reported data from WMDD”.

On to `C1CNCCN1.C[C@]12CC[C@@H]3c4ccc(OS(=O)(=O)O)cc4CC[C@H]3[C@@H]1CCC2=O` [ESTROPIPATE], for which the Phospholipidosis entry is reported as “Negative: based on the absence of positive reported data from WMDD”.

Regarding `C#CC(O)(/C=C/Cl)CC` (stereo unspecified) [ETHCHLORVYNOL], the Phospholipidosis result is recorded as “Negative: based on the absence of positive reported data from WMDD”.

`C#C[C@]1(O)CC[C@H]2[C@@H]3CCc4cc(O)ccc4[C@H]3CC[C@@]21C` [ETHINYL ESTRADIOL]: the Phospholipidosis result is listed as “Negative: based on the absence of positive reported data from WMDD”.

As for `CCN(CC)C(C)CN1c2ccccc2Sc2ccccc21` (stereo unspecified) [ETHOPROPAZINE], the Phospholipidosis entry is given as “Negative: based on the absence of positive reported data from WMDD”.

In the case of `CCOC(=O)C1N=C(c2ccccc2F)c2cc(Cl)ccc2NC1=O` (stereo unspecified) [ETHYL LOFLAZEPATE], the Phospholipidosis result is reported as “Positive: strong inducer confirmed by electron microscopy”.

Turning to `CCCN(CC)C(CC)C(=O)Nc1c(C)cccc1C` (stereo unspecified) [ETIDOCAINE], the Phospholipidosis result was “Negative: based on the absence of positive reported data from WMDD”.

Take `CCc1cc2c(s1)-n1c(C)nnc1CN=C2c1ccccc1Cl` [ETIZOLAM]: the Phospholipidosis entry is “Negative: based on the absence of positive reported data from WMDD”.

For `CCOC(=O)c1cncn1[C@H](C)c1ccccc1` [ETOMIDATE], the Phospholipidosis entry is on record as “Negative: based on the absence of positive reported data from WMDD”.

Turning to `COc1cc([C@@H]2c3cc4c(cc3[C@@H](O[C@@H]3O[C@@H]5CO[C@@H](C)O[C@H]5[C@H](O)[C@H]3O)[C@H]3COC(=O)[C@H]23)OCO4)cc(OC)c1O` [ETOPOSIDE], the Phospholipidosis result is “Negative: confirmed by electron microscopy”.

For `CCOC(=O)/C=C(C)/C=C/C=C(C)/C=C/c1c(C)cc(OC)c(C)c1C` [ETRETINATE], the Phospholipidosis result is listed as “Negative: based on the absence of positive reported data from WMDD”.

For the compound `Cc1cc(-c2ccc(/N=N/c3ccc4c(S(=O)(=O)[O-])cc(S(=O)(=O)[O-])c(N)c4c3O)c(C)c2)ccc1/N=N/c1ccc2c(S(=O)(=O)[O-])cc(S(=O)(=O)[O-])c(N)c2c1O.[Na+].[Na+].[Na+].[Na+]` [EVANS BLUE], the Phospholipidosis entry is on record as “Negative: based on the absence of positive reported data from WMDD”.

For the compound `CC(=O)OCC(CCn1cnc2cnc(N)nc21)COC(C)=O` [FAMCICLOVIR], the Phospholipidosis entry was “Negative: based on the absence of positive reported data from WMDD”.

Consider `Cc1c(-c2ccccc2)n(/N=N/n2c(-c3ccccc3)c(C)[n+]3ccccc23)c2cccc[n+]12.[Br-].[Br-]` [FAZADINIUM BROMIDE], for which the Phospholipidosis entry is recorded as “Negative: based on the absence of positive reported data from WMDD”.

Regarding `CCNC(C)Cc1cccc(C(F)(F)F)c1` (stereo unspecified) [FENFLURAMINE], the Phospholipidosis result was “Positive: strong inducer confirmed by electron microscopy”.

For the compound `CC(C(=O)O)c1cccc(Oc2ccccc2)c1` (stereo unspecified) [FENOPROFEN], the Phospholipidosis entry was “Negative: based on the absence of positive reported data from WMDD”.

With `CC(C)=CCC1C(=O)N(c2ccccc2)N(c2ccccc2)C1=O` [FEPRAZONE], the Phospholipidosis entry is given as “Negative: based on the absence of positive reported data from WMDD”.

With `Cc1c(-c2ccccc2)oc2c(C(=O)OCCN3CCCCC3)cccc2c1=O` [FLAVOXATE], the Phospholipidosis entry is listed as “Negative: based on the absence of positive reported data from WMDD”.

As for `O=C(NCC1CCCCN1)c1cc(OCC(F)(F)F)ccc1OCC(F)(F)F` (stereo unspecified) [FLECAINIDE], the Phospholipidosis entry is “Negative: confirmed by electron microscopy”.

Regarding `Cc1onc(-c2c(F)cccc2Cl)c1C(=O)N[C@@H]1C(=O)N2[C@@H]1SC(C)(C)[C@@H]2C(=O)O` [FLOXACILLIN], the Phospholipidosis result is recorded as “Negative: based on the absence of positive reported data from WMDD”.

As for `O=c1[nH]c(=O)n([C@H]2C[C@H](O)[C@@H](CO)O2)cc1F` [FLOXURIDINE], the Phospholipidosis result was “Negative: based on the absence of positive reported data from WMDD”.

Regarding `Nc1nc(=O)[nH]cc1F` [FLUCYTOSINE], the Phospholipidosis result is “Negative: based on the absence of positive reported data from WMDD”.

As to `Nc1nc(F)nc2c1ncn2[C@@H]1O[C@H](COP(=O)(O)O)[C@@H](O)[C@@H]1O` [FLUDARABINE PHOSPHATE], the Phospholipidosis result is given as “Negative: based on the absence of positive reported data from WMDD”.

For the compound `O=C(O)c1ccccc1Nc1cccc(C(F)(F)F)c1` [FLUFENAMIC ACID], the Phospholipidosis result is reported as “Negative: based on the absence of positive reported data from WMDD”.

On to `O=c1[nH]cc(F)c(=O)[nH]1` [FLUOROURACIL], for which the Phospholipidosis entry is recorded as “Negative: based on the absence of positive reported data from WMDD”.

As to `CNCCC(Oc1ccc(C(F)(F)F)cc1)c1ccccc1` (stereo unspecified) [FLUOXETINE], the Phospholipidosis result is reported as “Positive: strong inducer confirmed by electron microscopy”.

In the case of `CCCCCCCCCC(=O)OCCN1CCN(CCCN2c3ccccc3Sc3ccc(C(F)(F)F)cc32)CC1` [FLUPHENAZINE DECANOATE], the Phospholipidosis result was “Negative: based on the absence of positive reported data from WMDD”.

In the case of `CCCCCCC(=O)OCCN1CCN(CCCN2c3ccccc3Sc3ccc(C(F)(F)F)cc32)CC1` [FLUPHENAZINE ENANTHATE], the Phospholipidosis entry is “Negative: based on the absence of positive reported data from WMDD”.

In the case of `CCN(CC)CCN1C(=O)CN=C(c2ccccc2F)c2cc(Cl)ccc21` [FLURAZEPAM], the Phospholipidosis result is given as “Negative: based on the absence of positive reported data from WMDD”.

On to `O=C1CN2CCOC2(c2ccccc2F)c2cc(Cl)ccc2N1CCO` (stereo unspecified) [FLUTAZOLAM], for which the Phospholipidosis result is reported as “Negative: based on the absence of positive reported data from WMDD”.

`COCCCC/C(=N\OCCN)c1ccc(C(F)(F)F)cc1` [FLUVOXAMINE]: the Phospholipidosis result was “Positive: weak inducer based on presence of foamy macrophages and cytoplasmic vacuolations”.

For `Nc1nc2ncc(CNc3ccc(C(=O)N[C@@H](CCC(=O)O)C(=O)O)cc3)nc2c(=O)[nH]1` [FOLIC ACID], the Phospholipidosis entry is “Negative: based on the absence of positive reported data from WMDD”.

Turning to `CN(CC(=O)N1CCOCC1)Cc1c(Cl)cccc1NC(=O)c1ccccc1` [FOMINOBEN], the Phospholipidosis entry was “Negative: based on the absence of positive reported data from WMDD”.

As for `CCC(=O)O[C@@H](O[P@](=O)(CCCCc1ccccc1)CC(=O)N1C[C@H](C2CCCCC2)C[C@H]1C(=O)O)C(C)C` [FOSINOPRIL], the Phospholipidosis result is reported as “Negative: based on the absence of positive reported data from WMDD”.

In the case of `NC[C@@H]1O[C@H](O[C@H]2[C@@H](O)[C@H](O[C@@H]3[C@@H](O)[C@H](N)C[C@H](N)[C@H]3O[C@H]3O[C@H](CN)[C@@H](O)[C@H](O)[C@H]3N)O[C@@H]2CO)[C@H](N)[C@@H](O)[C@@H]1O` [FRAMYCETIN], the Phospholipidosis result is “Negative: based on the absence of positive reported data from WMDD”.

With `NS(=O)(=O)c1cc(C(=O)O)c(NCc2ccco2)cc1Cl` [FUROSEMIDE], the Phospholipidosis result is reported as “Negative: confirmed by electron microscopy”.

In the case of `CC[N+](CC)(CC)CCOc1cccc(OCC[N+](CC)(CC)CC)c1OCC[N+](CC)(CC)CC.[I-].[I-].[I-]` [GALLAMINE TRIETHIODIDE], the Phospholipidosis result is given as “Negative: based on the absence of positive reported data from WMDD”.

For the compound `Cc1ccc(C)c(OCCCC(C)(C)C(=O)O)c1` [GEMFIBROZIL], the Phospholipidosis result was “Negative: confirmed by electron microscopy”.

Take `CN[C@@H]1[C@@H](O)[C@@H](O[C@@H]2[C@@H](O)[C@H](O[C@H]3O[C@H]([C@@H](C)NC)CC[C@H]3N)[C@@H](N)C[C@H]2N)OC[C@]1(C)O` [GENTAMICIN C1]: the Phospholipidosis result is recorded as “Positive: strong inducer confirmed by electron microscopy”.

(Values after ChEMBL document CHEMBL1697821, “Development of a phospholipidosis database and predictive quantitative structure-activity relationship (QSAR) models” (Toxicol Mech Methods, 2008).)
